Here are results for 13 molecules from ChEMBL document CHEMBL5291721, “A preclinical secondary pharmacology resource illuminates target-adverse drug reaction associations of marketed drugs” (Nat Commun, 2023).

Some targets named below: Motilin receptor (Homo sapiens, UniProt O43193); Histamine H1 receptor (Homo sapiens, UniProt P35367); Histamine H3 receptor (Homo sapiens, UniProt Q9Y5N1); D(3) dopamine receptor (Homo sapiens, UniProt P35462); Mu-type opioid receptor (Homo sapiens, UniProt P35372).
For another assay, the target named is D(1A) dopamine receptor (Homo sapiens, UniProt P21728). In kind it is functional, cell-based.
Assay [1] has as its target Muscarinic acetylcholine receptor M3 (Homo sapiens, UniProt P20309).
For a further assay, the target named is T1, Progesterone receptor (Homo sapiens, UniProt P06401).
T1 sequence (P06401 whole entry): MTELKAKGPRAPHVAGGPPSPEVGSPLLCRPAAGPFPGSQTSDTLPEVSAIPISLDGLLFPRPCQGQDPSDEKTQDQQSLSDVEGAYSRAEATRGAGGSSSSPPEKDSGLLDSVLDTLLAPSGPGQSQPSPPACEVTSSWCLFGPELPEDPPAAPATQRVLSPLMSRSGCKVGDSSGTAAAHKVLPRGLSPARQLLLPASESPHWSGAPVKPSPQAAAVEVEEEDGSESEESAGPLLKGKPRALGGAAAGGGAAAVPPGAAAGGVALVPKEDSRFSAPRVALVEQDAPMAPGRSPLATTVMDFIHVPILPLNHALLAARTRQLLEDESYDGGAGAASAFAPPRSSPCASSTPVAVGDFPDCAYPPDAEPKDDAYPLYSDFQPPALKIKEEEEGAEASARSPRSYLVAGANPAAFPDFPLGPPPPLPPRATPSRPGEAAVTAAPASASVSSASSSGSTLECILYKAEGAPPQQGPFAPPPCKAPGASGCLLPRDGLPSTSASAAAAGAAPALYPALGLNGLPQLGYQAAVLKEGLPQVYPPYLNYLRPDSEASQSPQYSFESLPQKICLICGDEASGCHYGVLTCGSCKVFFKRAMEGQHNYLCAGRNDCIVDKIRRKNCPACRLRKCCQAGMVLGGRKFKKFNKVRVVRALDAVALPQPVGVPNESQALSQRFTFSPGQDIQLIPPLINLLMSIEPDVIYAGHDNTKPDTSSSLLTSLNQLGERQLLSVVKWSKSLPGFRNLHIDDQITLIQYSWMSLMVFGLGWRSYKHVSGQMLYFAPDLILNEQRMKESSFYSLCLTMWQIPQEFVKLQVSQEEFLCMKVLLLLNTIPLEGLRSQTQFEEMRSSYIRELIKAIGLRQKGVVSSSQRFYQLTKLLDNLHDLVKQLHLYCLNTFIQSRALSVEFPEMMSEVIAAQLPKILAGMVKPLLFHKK
The assay is classed as functional.

Assay [2] has as its target Neuronal acetylcholine receptor subunit alpha-4 (Homo sapiens, UniProt P43681).
Assay [3] addresses T2, Cannabinoid receptor 1 (Homo sapiens, UniProt P21554). The assay is classed as functional, cell-based.
Assay [4] concerns the target 5-hydroxytryptamine receptor 2A (Homo sapiens, UniProt P28223). The assay is classed as functional, cell-based.
Assay [5] addresses T3, Amine oxidase [flavin-containing] A (Homo sapiens, UniProt P21397).
T3 sequence (P21397 whole entry): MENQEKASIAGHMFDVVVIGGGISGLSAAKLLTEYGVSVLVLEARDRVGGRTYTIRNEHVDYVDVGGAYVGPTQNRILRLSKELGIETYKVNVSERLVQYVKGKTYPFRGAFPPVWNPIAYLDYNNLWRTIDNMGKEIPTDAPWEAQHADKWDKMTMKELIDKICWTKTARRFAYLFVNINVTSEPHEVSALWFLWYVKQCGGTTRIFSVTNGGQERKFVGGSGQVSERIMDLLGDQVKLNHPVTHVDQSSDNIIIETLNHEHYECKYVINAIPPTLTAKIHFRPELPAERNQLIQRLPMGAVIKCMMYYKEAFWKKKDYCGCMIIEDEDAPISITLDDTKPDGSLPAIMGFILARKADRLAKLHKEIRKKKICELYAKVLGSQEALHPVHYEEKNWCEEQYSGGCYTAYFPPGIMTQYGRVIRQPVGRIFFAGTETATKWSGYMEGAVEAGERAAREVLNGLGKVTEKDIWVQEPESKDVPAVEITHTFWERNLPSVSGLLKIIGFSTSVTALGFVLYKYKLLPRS
The assay is classed as functional.

Assay [6] addresses Prostaglandin G/H synthase 1 (Homo sapiens, UniProt P23219). The assay is classed as functional.
Assay [7] deals with T4, Muscarinic acetylcholine receptor M1 (Homo sapiens, UniProt P11229).
T4 sequence (P11229 whole entry): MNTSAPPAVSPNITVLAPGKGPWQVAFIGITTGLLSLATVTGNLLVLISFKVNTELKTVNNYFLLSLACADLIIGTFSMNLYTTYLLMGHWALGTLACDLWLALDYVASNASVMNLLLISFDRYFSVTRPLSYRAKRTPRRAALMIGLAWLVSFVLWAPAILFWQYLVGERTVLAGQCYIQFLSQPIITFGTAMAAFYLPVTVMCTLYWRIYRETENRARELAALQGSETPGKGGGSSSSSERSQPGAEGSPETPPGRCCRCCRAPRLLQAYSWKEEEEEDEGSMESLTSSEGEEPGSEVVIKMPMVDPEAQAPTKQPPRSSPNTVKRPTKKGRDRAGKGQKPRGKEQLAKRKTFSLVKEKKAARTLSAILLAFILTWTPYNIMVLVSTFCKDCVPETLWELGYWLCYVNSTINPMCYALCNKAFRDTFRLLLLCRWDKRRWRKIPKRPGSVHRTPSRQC
The assay is classed as functional, cell-based.

Assay [8] deals with T4, Muscarinic acetylcholine receptor M1. The assay is classed as functional, cell-based. This is another data set of the same source.
Assay [9] addresses T2, Cannabinoid receptor 1.

Where only a bound is given, the exact number is not on record here.
Further: assay procedure not described here.

Mu-type opioid receptor, sequence (P35372 whole entry): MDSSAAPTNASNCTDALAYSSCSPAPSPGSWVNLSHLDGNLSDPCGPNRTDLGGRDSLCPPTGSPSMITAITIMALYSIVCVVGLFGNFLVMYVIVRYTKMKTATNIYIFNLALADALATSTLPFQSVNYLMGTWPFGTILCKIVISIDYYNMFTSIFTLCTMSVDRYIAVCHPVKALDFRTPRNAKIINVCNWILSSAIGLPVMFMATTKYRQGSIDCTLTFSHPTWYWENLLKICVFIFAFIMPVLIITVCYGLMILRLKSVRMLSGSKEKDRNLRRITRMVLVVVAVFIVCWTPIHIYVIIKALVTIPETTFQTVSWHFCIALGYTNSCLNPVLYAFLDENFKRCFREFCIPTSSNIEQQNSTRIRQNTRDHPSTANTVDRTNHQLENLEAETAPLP
T2 sequence (P21554 whole entry): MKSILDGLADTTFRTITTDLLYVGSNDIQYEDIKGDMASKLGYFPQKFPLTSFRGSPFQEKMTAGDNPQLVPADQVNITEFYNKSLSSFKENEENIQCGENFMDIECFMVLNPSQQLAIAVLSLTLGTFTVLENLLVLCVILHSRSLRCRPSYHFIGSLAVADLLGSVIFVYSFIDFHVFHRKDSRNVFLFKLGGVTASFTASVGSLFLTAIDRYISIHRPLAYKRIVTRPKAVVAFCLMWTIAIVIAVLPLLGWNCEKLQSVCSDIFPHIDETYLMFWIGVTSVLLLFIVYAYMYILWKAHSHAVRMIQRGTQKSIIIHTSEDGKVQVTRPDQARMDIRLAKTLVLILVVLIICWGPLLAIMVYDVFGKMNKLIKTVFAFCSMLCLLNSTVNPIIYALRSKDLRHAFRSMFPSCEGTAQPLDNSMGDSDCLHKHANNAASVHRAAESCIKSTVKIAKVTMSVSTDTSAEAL
5-hydroxytryptamine receptor 2A, sequence (P28223 whole entry): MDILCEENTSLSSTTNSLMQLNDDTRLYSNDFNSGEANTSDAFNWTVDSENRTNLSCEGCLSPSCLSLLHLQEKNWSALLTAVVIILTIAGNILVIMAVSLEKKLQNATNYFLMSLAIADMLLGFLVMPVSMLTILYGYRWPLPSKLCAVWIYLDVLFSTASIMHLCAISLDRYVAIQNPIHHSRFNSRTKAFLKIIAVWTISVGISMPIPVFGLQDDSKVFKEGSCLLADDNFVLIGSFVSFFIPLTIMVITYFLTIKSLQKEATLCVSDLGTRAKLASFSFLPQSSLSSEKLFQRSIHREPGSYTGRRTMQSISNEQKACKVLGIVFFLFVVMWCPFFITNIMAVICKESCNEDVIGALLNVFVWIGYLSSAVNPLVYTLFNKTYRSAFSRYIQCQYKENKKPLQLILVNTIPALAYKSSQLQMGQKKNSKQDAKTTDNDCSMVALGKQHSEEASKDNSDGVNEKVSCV
Neuronal acetylcholine receptor subunit alpha-4, sequence (P43681 whole entry): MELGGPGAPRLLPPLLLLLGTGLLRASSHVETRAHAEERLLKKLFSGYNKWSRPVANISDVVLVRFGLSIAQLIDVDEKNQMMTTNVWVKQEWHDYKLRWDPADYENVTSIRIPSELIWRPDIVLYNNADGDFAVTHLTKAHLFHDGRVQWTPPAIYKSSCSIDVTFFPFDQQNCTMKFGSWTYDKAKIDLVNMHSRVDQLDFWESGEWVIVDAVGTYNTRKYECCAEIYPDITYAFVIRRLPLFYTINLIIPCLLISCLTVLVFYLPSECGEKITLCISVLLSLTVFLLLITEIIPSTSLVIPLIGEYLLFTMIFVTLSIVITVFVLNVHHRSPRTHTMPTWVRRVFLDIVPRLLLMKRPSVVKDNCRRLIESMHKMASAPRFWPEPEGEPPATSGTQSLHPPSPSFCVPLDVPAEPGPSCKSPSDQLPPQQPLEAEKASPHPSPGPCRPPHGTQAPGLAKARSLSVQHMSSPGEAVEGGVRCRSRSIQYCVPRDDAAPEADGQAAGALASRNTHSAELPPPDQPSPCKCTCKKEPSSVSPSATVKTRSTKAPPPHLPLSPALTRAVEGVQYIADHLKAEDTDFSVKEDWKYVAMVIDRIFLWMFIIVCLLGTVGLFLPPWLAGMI
Muscarinic acetylcholine receptor M3, sequence (P20309 whole entry): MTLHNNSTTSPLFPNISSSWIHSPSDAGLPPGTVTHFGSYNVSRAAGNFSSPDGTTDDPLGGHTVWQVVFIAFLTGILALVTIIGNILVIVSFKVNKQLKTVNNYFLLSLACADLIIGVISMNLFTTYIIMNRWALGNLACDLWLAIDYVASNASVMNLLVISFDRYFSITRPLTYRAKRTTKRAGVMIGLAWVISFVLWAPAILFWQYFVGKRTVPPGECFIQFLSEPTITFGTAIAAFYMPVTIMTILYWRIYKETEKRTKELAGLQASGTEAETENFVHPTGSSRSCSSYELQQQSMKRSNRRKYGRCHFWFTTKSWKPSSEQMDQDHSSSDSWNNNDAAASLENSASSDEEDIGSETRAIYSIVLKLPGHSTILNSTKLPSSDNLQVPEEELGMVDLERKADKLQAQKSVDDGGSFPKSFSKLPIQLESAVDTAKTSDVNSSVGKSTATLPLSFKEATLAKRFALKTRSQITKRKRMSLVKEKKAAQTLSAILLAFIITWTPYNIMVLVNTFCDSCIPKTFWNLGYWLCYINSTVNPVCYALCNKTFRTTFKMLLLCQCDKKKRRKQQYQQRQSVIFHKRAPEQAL
Histamine H3 receptor, sequence (Q9Y5N1 whole entry): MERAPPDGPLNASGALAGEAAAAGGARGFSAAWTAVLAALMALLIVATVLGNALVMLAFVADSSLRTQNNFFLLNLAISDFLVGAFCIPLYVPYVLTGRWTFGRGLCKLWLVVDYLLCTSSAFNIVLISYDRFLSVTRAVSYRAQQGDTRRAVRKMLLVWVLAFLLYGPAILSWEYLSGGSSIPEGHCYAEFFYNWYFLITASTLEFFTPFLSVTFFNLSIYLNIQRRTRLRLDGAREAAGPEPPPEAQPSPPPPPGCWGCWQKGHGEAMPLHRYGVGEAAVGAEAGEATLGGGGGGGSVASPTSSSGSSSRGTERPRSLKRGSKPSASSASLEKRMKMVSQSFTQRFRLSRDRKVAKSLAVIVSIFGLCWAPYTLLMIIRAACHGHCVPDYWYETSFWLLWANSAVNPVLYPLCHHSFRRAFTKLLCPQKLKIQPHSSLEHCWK
D(3) dopamine receptor, sequence (P35462 whole entry): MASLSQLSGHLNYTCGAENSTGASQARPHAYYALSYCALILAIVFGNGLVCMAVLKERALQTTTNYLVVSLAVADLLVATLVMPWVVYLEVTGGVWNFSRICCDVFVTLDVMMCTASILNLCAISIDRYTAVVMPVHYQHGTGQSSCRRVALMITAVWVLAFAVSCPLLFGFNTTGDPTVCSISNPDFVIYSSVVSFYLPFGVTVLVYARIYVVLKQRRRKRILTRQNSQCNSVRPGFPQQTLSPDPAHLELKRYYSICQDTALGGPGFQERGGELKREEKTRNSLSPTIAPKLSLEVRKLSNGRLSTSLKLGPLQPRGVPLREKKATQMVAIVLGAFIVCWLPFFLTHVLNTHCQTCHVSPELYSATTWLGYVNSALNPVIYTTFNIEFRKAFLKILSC
Histamine H1 receptor, sequence (P35367 whole entry): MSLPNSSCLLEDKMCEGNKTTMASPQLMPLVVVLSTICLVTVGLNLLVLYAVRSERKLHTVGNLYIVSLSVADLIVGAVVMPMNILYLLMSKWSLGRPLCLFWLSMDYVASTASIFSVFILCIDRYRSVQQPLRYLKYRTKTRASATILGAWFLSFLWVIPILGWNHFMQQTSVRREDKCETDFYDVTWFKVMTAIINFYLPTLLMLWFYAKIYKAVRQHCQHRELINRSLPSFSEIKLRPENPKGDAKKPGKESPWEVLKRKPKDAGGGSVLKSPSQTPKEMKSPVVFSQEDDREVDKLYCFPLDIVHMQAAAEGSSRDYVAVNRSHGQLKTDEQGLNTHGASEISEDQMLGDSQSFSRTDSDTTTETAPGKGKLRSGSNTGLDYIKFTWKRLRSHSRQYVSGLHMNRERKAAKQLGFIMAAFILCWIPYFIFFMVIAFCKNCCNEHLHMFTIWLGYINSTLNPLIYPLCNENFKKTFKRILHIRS
Prostaglandin G/H synthase 1, sequence (P23219 whole entry): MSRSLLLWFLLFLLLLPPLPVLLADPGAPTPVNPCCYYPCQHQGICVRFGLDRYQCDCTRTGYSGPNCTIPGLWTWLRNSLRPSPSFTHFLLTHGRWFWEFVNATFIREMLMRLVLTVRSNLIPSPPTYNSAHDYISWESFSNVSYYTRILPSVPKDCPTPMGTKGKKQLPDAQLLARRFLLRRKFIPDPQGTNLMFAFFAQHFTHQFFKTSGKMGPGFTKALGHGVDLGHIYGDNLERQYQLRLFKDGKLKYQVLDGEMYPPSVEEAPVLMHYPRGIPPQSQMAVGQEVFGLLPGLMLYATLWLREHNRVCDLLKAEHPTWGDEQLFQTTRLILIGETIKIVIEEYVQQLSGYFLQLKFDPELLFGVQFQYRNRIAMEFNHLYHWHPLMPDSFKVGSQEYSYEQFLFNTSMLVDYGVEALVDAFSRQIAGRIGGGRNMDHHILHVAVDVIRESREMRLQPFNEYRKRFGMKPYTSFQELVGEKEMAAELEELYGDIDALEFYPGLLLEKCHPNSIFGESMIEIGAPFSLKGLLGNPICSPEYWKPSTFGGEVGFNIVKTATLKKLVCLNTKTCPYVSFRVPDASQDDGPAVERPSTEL
Motilin receptor, sequence (O43193 whole entry): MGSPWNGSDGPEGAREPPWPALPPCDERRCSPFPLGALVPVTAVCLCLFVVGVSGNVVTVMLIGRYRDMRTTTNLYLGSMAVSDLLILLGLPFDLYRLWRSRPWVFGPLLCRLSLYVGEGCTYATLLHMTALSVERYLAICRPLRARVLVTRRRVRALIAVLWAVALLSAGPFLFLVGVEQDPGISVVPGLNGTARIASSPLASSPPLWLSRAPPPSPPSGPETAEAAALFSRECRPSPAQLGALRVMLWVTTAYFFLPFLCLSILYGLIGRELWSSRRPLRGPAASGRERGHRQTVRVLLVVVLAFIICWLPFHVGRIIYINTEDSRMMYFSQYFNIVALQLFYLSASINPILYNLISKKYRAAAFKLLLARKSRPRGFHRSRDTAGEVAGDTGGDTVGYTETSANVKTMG

In the case of `Cc1cccc(C)c1NC(=O)CC12CCCN1CCC2` [PILSICAINIDE], the AC50 (on Motilin receptor; on Histamine H1 receptor; on D(1A) dopamine receptor; in [1]; on Progesterone receptor; in assay [2]) was above 30 µM in each case. Moreover, the AC50 (at Cannabinoid receptor 1 [3]; at Histamine H3 receptor; on D(3) dopamine receptor; in assay [4]; in assay [5]) was above 30 µM in each case.
As for `CCOC(=O)c1c(CSc2ccccc2)n(C)c2cc(Br)c(O)c(CN(C)C)c12` [UMIFENOVIR], the half-maximal activity concentration (AC50) at Motilin receptor was 3.7 µM; on Histamine H1 receptor, 30 µM; on D(1A) dopamine receptor, above 30 µM; in assay [1] it was above 30 µM; at Progesterone receptor, above 30 µM; in assay [2] it was above 30 µM. The AC50 was above 30 µM at Cannabinoid receptor 1 [3]; above 30 µM on Histamine H3 receptor; 6.8 µM on D(3) dopamine receptor; above 30 µM in assay [4]; above 30 µM in assay [5].
As for `COC(=O)C1=C(C)NC(C)=C(C(=O)OCCN2CCN(C(c3ccccc3)c3ccccc3)CC2)C1c1cccc([N+](=O)[O-])c1` (stereo not drawn) [MANIDIPINE 6300], the AC50 was above 30 µM on Motilin receptor; 3.7 µM at Histamine H1 receptor; above 30 µM on D(1A) dopamine receptor; above 30 µM in [1]; above 30 µM on Progesterone receptor; above 30 µM in [2]. Also, the AC50 at Cannabinoid receptor 1 [3] was 26 µM; on Histamine H3 receptor, above 30 µM; on D(3) dopamine receptor it was 6.3 µM; in [4], above 30 µM; in assay [5], above 30 µM.
Consider `OC[C@H]1O[C@@H](n2cnc3c2NC=NC[C@H]3O)C[C@@H]1O` [PENTOSTATIN], for which the AC50 (at Motilin receptor; on Histamine H1 receptor; at D(1A) dopamine receptor; in [1]; at Progesterone receptor; in [2]) was above 30 µM in each case. The AC50 (at Cannabinoid receptor 1 [3]; at Histamine H3 receptor; on D(3) dopamine receptor; in assay [4]; in assay [5]) was above 30 µM each time.
As for `C[C@@H]1C[C@H]2[C@@H]3C[C@H](F)C4=CC(=O)C=C[C@]4(C)[C@@]3(F)[C@@H](O)C[C@]2(C)[C@@]1(OC(=O)c1ccco1)C(=O)SCF` [FLUTICASONE FUROATE], the AC50 is 27.7 µM in [6]; above 10 µM on Motilin receptor; above 10 µM on Histamine H1 receptor; above 30 µM in [7]; above 10 µM on D(1A) dopamine receptor; above 30 µM in assay [1]. The AC50 was above 10 µM in assay [2]; above 30 µM on Cannabinoid receptor 1 [3]; above 30 µM on Mu-type opioid receptor; above 30 µM in [8]; 16.3 µM at Cannabinoid receptor 1 [9]; above 30 µM on D(3) dopamine receptor. Moreover, the concentration at half-maximal activity (AC50) in assay [5] is above 10 µM.
For the molecule `CC1=C(C(=O)OC(C)C)C(c2cccc([N+](=O)[O-])c2)C(C(=O)OC2CN(C(c3ccccc3)c3ccccc3)C2)=C(N)N1` (stereo not drawn) [AZELNIDIPINE], the AC50 at Motilin receptor is 16 µM; on Histamine H1 receptor, above 30 µM; on D(1A) dopamine receptor, above 30 µM; in assay [1] it was above 30 µM; at Progesterone receptor it was above 30 µM; in assay [2] it was above 30 µM. In addition, the AC50 (at Cannabinoid receptor 1 [3]; on Histamine H3 receptor; on D(3) dopamine receptor; in assay [4]; in [5]) was above 30 µM in each case.
Regarding `O=C1OC(OC(=O)c2cccnc2Nc2cccc(C(F)(F)F)c2)c2ccccc21` (stereo not drawn) [TALNIFLUMATE], the AC50 (at Motilin receptor; on Histamine H1 receptor; on D(1A) dopamine receptor; in [1]; on Progesterone receptor; in assay [2]) was above 30 µM in each case. The AC50 (at Cannabinoid receptor 1 [3]; on Histamine H3 receptor; at D(3) dopamine receptor; in [4]; in assay [5]) was above 30 µM in each case.
As to `CCCn1cnc2c1c(=O)n(CCCCC(C)=O)c(=O)n2C` [PROPENTOFYLLINE], the concentration at half-maximal activity (AC50) (in [6]; in assay [7]; on Mu-type opioid receptor; in assay [8]) was above 30 µM throughout.
In the case of `Cc1cc2c(cc1S(N)(=O)=O)S(=O)(=O)CCC2`, the AC50 (in [6]; in assay [7]; at Mu-type opioid receptor; in assay [8]) was above 30 µM each time.
On to `CN(C)C/C=C/C(=O)Nc1cc2c(Nc3ccc(F)c(Cl)c3)ncnc2cc1O[C@H]1CCOC1` [AFATINIB], for which the AC50 (on Motilin receptor; at Histamine H1 receptor; at D(1A) dopamine receptor; in assay [1]; at Progesterone receptor; in assay [2]) was above 30 µM each time. Moreover, the AC50 (at Cannabinoid receptor 1 [3]; on Histamine H3 receptor; at D(3) dopamine receptor; in [4]; in assay [5]) was above 30 µM throughout.
For `CC(Cc1cccc(C(F)(F)F)c1)NCCOC(=O)c1ccccc1` (stereo not drawn) [BENFLUOREX], the AC50 on Motilin receptor is above 30 µM; at Histamine H1 receptor it was 13.5 µM; at D(1A) dopamine receptor, above 30 µM; in [1] it was 27 µM; at Progesterone receptor it was above 30 µM; in assay [2], above 30 µM. Further, the AC50 is above 30 µM at Histamine H3 receptor, 2.63 µM on D(3) dopamine receptor, above 30 µM in assay [4] and above 30 µM in [5].
As to `CC(=O)OCC(=O)[C@@]1(O)CC[C@H]2[C@@H]3CCC4=CC(=O)CC[C@]4(C)[C@H]3[C@@H](O)C[C@@]21C` [HYDROCORTISONE ACETATE], the AC50 in assay [6] was above 30 µM; in assay [7], 17.7 µM; on Mu-type opioid receptor it was above 30 µM; in assay [8] it was above 30 µM.
In the case of `CNCCc1ccc(OC(=O)C(C)C)c(OC(=O)C(C)C)c1` [IBOPAMINE], the half-maximal activity concentration (AC50) on Motilin receptor is above 30 µM; on Histamine H1 receptor it was above 30 µM; on D(1A) dopamine receptor it was 0.0442 µM; in assay [1] it was above 30 µM; on Progesterone receptor, above 30 µM; in [2], above 30 µM. Further, the AC50 was above 30 µM at Cannabinoid receptor 1 [3]; above 30 µM on Histamine H3 receptor; 0.767 µM on D(3) dopamine receptor; above 30 µM in [4]; above 30 µM in assay [5].
